Data taken from US20250059139A1, “COMPOUNDS FOR TREATMENT OF CANCER” (THE JOHNS HOPKINS UNIVERSITY, priority 2021, published 2025).
Like-named read-outs stand apart in the source and are kept apart here.

Experiments:
[1] = biological target: T1, Human Aryl Hydrocarbon Receptor (AHR) (Homo sapiens, UniProt P35869); assay: Human AHR reporter assay (cell-based  luciferase reporter gene assay)
T1 construct: purchased Indigo Biosciences IB06001
T1 sequence (P35869 11-848): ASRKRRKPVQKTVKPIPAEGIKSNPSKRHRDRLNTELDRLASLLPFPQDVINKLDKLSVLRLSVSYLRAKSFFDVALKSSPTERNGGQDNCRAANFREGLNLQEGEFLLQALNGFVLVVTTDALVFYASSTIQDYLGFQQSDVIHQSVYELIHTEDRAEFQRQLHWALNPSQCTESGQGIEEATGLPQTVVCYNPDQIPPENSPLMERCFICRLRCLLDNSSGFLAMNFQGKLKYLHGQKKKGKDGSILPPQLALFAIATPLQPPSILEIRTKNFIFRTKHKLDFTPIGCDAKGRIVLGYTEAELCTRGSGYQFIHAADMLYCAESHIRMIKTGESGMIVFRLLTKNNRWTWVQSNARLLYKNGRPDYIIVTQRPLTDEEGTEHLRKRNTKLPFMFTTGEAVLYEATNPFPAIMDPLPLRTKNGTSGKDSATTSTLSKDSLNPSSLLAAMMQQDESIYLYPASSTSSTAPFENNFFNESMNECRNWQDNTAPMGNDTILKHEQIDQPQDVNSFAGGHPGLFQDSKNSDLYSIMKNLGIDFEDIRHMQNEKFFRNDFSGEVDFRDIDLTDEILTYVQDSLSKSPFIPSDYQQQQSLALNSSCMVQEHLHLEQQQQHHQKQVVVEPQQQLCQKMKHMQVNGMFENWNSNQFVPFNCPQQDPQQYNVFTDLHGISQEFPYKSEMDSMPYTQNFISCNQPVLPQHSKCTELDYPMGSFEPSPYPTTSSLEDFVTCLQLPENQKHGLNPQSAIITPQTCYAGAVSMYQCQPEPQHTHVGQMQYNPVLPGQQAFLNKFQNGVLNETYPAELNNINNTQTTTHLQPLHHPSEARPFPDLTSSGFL
Description: AHR Agonist Assay. Human Aryl Hydrocarbon Receptor (AHR) Reporter Assay System [Indigo Biosciences (State College, Pa) Cat #IB06001] was used as per the manufacturer's protocol.
Thus, a series of quinoline-3-carboxamide analogs were synthesized focusing upon adduct changes at the aniline-N. These analogs were synthesized as described in Example 1, and were initially screened for their AHR agonist activity using the in vitro human cell-based ARE-driven luciferase reporter gene assay (Table 3).

solid malignances = conditions: cited from earlier work
[2] = biological target: T2, fl-R681A/R798A double mutant HDAC4 (Homo sapiens, UniProt P56524, R681A/R798A); assay: SPR binding of fl-R681A/R798A double mutant HDAC4 to immobilized TasQ; conditions: TasQ in solution
T2 construct: Full-length (fl) [A.A. 1-1082] recombinant human histone deacetylase 4 (rhHDAC4) protein; FLAG (N); GST (given as 'with or without'); made in house; host or cells: HEK293-T
Method: Surface Plasmon Resonance (SPR) Binding Analysis. SPR analysis was performed on the Biacore 3000™ system using CM5 sensor chips, certified buffers (HBS-P—10 mM HEPES, 0.15 M NaCl, pH 7.4, containing 0.005% v/v Surfactant P; HBS-EP-HBS-P with 3 mM EDTA) and reagents for immobilization and surface regeneration from Biacore, GE Healthcare, Uppsala Sweden. Evaluation of sensorgrams was performed using the BIA-evaluation Software version 4.1 and GraphPad Prism 4. Buffer of protein reagents were changed to HBS-P on Zeba spin desalting columns (Thermo Scientific) prior to being used in SPR analysis (Isaacs 2013).
A. Binding of wild-type and mutant forms of HDAC4 to immobilized TasQ. TasQ (ABR-215050; mol wt 406.4) was dissolved as a 40 mM solution in water with 1.5 equivalents of NaOH. TasQ with an amino-linker [i.e. —(CH2)2O(CH2)2—NH2](ABR-225180) in amide nitrogen position was used for amine coupling on to a Biacore CM5 sensor chip. A 1 mg/mL solution of ABR-225180 in HBS-P buffer was prepared and immobilized on a CM5 chip by injection at a flow rate of 5 or 10 μL/min until a stable response level was reached. Interaction of various HDAC4 forms with immobilized TasQ was studied by injection over this surface in HBS-P buffer containing 10 or 20 μM ZnCl2. Bound HDAC4 was removed by a pulse of 3 mM EDTA in HBS-P or 0.5 to 6.25 mM NaOH in water. […]

[3] = cited from earlier work

T2 sequence (P56524 whole entry R681A/R798A): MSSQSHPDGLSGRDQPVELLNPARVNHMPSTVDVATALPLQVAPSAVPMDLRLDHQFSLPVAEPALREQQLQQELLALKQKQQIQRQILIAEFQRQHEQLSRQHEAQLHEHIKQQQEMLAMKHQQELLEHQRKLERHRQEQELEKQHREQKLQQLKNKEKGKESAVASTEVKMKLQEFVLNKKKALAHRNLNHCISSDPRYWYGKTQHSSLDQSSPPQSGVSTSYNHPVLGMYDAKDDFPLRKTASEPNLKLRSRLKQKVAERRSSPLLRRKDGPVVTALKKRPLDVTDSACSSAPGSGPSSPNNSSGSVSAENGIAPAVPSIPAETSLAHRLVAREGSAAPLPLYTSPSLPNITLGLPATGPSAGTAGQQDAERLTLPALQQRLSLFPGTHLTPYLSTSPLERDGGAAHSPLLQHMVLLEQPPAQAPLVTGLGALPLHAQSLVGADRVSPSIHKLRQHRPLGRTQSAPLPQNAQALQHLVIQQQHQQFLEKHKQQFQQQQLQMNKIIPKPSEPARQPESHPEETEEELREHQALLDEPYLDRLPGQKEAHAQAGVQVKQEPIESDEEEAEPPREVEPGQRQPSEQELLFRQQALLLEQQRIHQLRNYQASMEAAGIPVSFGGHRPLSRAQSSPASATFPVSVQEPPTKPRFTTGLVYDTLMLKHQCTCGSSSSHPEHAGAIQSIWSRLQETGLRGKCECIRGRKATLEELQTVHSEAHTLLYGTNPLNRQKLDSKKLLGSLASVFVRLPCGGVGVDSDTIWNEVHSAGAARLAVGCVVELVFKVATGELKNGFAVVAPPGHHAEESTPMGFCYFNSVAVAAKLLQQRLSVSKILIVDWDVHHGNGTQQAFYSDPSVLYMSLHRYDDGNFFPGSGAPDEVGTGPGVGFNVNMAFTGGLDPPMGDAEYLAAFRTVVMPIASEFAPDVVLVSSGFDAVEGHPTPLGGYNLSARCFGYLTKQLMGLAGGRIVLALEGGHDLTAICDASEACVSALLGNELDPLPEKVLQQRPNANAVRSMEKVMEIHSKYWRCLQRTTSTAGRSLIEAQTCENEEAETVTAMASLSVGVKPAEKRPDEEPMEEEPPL

COc1cccc2c1c(O)c(C(=O)N(c1ccc(C(F)(F)F)cc1)C1CCCCC1)c(=O)n2C [ESATA-20]
EC50 ([1]; luciferase reporter gene assay, read-out: AHR agonist EC50): 10000 nM
EC50 ([1]; n = 4 independent assays/analog, read-out: AHR Agonist Response [EC50] (nM +/−SD)): 10200 nM

COc1cccc2c1c(O)c(C(=O)N(C)c1ccc(C(F)(F)F)cc1)c(=O)n2C [TasQ, Tasquinimod]
fold increase in anti-tumor efficacy compared to Linomide (solid malignances; in vivo): > 25 fold
fold enhanced potency in antiangiogenic and anti-metastatic ability (solid malignances; preclinical studies, vs. first-generation Linomide): 30-60 fold
competitive displacement of mutant HDAC4 from immobilized TasQ [2]: not competitively displaced
blood concentrations maintained ([3]; daily oral 10 mg/kg/d): > 1000 nM
serum nadir ([3]; oral 5 mg/kg/d, at 24 hrs): 1.08 ± 0.21 µM
